Measurements: the supplement of paper PMC10307832

What was measured:
Test in all cases: relative viability (nuclei count vs DMSO), 5 days (fraction); higher = more cells survive
[1] = test system: PC-14
Summary of the method: (§1)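 Nuclei were stained with Hoechst during a one-step fixation (final 0.05% Triton X-100, 1% formaldehyde, 1 ug/ml Hoechst) carried out 5 days after dosing, then counted on 4× images. The cells, lung cancer lines in 1536-well plates, had been dosed by pin tool the day after seeding with one drug alone or a fixed anchor-drug dose plus five library-drug doses (not always all listed) in √10 steps. Relative viability is the nuclei count in treated wells divided by that in vehicle wells, and each value is the median of duplicate plates.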

[2] = test system: SK-MES-1
Summary of the method: as §1

[3] = test system: NCI-H1915
Summary of the method: as §1

[4] = test system: NCI-H2347
Summary of the method: as §1

[5] = test system: NCI-H661
Summary of the method: as §1

[6] = test system: NCI-H520
Summary of the method: as §1

[7] = test system: NCI-H727
Summary of the method: as §1

[8] = test system: NCI-H3122
Summary of the method: as §1

[9] = test system: LXF-289
Summary of the method: as §1

[10] = test system: NCI-H1563
Summary of the method: as §1

[11] = test system: NCI-H1755
Summary of the method: as §1

[12] = test system: LCLC-103H
Summary of the method: as §1

[13] = test system: NCI-H441
Summary of the method: as §1

[14] = test system: NCI-H596
Summary of the method: as §1

[15] = test system: NCI-H650
Summary of the method: as §1

[16] = test system: RERF-LC-KJ
Summary of the method: as §1

[17] = test system: NCI-H322M
Summary of the method: as §1

[18] = test system: NCI-H460
Summary of the method: as §1

[19] = test system: NCI-H1792
Summary of the method: as §1

[20] = test system: NCI-H1651
Summary of the method: as §1

[21] = test system: NCI-H2170
Summary of the method: as §1

[22] = test system: NCI-H1355
Summary of the method: as §1

SMILES: NC(=O)Nc1cc(-c2cccc(F)c2)sc1C(=O)N[C@H]1CCCNC1 [AZD7762] + Cc1nc(NC(=O)N2CCC[C@H]2C(N)=O)sc1-c1ccnc(C(C)(C)C(F)(F)F)c1 [Alpelisib] (partner 2 µM)
- relative viability ([1]; first compound 0.01 µM): 0.894
- relative viability ([1]; first compound 0.03162 µM): 0.953
- relative viability ([1]; first compound 0.1 µM): 0.922
- relative viability ([1]; first compound 0.3162 µM): 0.919
- relative viability ([1]; first compound 1 µM): 0.392
- relative viability ([2]; first compound 0.01 µM): 0.968
- relative viability ([2]; first compound 0.03162 µM): 0.946
- relative viability ([2]; first compound 0.1 µM): 1.02
- relative viability ([2]; first compound 0.3162 µM): 1.09
- relative viability ([2]; first compound 1 µM): 0.591
- relative viability ([3]; first compound 0.01 µM): 1.06
- relative viability ([3]; first compound 0.03162 µM): 1.12
- relative viability ([3]; first compound 0.1 µM): 1.09
- relative viability ([3]; first compound 0.3162 µM): 1.09
- relative viability ([3]; first compound 1 µM): 0.997
- relative viability ([4]; first compound 0.01 µM): 1.07
- relative viability ([4]; first compound 0.03162 µM): 0.993
- relative viability ([4]; first compound 0.1 µM): 1.11
- relative viability ([4]; first compound 0.3162 µM): 1.26
- relative viability ([4]; first compound 1 µM): 1.01
- relative viability ([5]; first compound 0.01 µM): 0.712
- relative viability ([5]; first compound 0.03162 µM): 0.611
- relative viability ([5]; first compound 0.1 µM): 0.761
- relative viability ([5]; first compound 0.3162 µM): 0.491
- relative viability ([5]; first compound 1 µM): 0.35
- relative viability ([6]; first compound 0.01 µM): 1.05
- relative viability ([6]; first compound 0.03162 µM): 1.04
- relative viability ([6]; first compound 0.1 µM): 0.832
- relative viability ([6]; first compound 0.3162 µM): 0.635
- relative viability ([6]; first compound 1 µM): 0.371
- relative viability ([7]; first compound 0.01 µM): 0.583
- relative viability ([7]; first compound 0.03162 µM): 0.561
- relative viability ([7]; first compound 0.1 µM): 0.471
- relative viability ([7]; first compound 0.3162 µM): 0.466
- relative viability ([7]; first compound 1 µM): 0.218
- relative viability ([8]; first compound 0.01 µM): 0.768
- relative viability ([8]; first compound 0.03162 µM): 0.866
- relative viability ([8]; first compound 0.1 µM): 0.737
- relative viability ([8]; first compound 0.3162 µM): 0.748
- relative viability ([8]; first compound 1 µM): 0.758
- relative viability ([9]; first compound 0.01 µM): 1.01
- relative viability ([9]; first compound 0.03162 µM): 1.07
- relative viability ([9]; first compound 0.1 µM): 1.12
- relative viability ([9]; first compound 0.3162 µM): 1.04
- relative viability ([9]; first compound 1 µM): 1.14
- relative viability ([10]; first compound 0.01 µM): 1.01
- relative viability ([10]; first compound 0.03162 µM): 0.918
- relative viability ([10]; first compound 0.1 µM): 0.978
- relative viability ([10]; first compound 0.3162 µM): 0.943
- relative viability ([10]; first compound 1 µM): 0.76
- relative viability ([11]; first compound 0.01 µM): 0.957
- relative viability ([11]; first compound 0.03162 µM): 0.924
- relative viability ([11]; first compound 0.1 µM): 0.999
- relative viability ([11]; first compound 0.3162 µM): 0.907
- relative viability ([11]; first compound 1 µM): 0.547
- relative viability ([12]; first compound 0.01 µM): 1.01
- relative viability ([12]; first compound 0.03162 µM): 0.962
- relative viability ([12]; first compound 0.1 µM): 0.889
- relative viability ([12]; first compound 0.3162 µM): 0.977
- relative viability ([12]; first compound 1 µM): 0.9
- relative viability ([13]; first compound 0.01 µM): 1.17
- relative viability ([13]; first compound 0.03162 µM): 0.831
- relative viability ([13]; first compound 0.1 µM): 1.2
- relative viability ([13]; first compound 0.3162 µM): 1.01
- relative viability ([13]; first compound 1 µM): 1.09
- relative viability ([14]; first compound 0.01 µM): 0.549
- relative viability ([14]; first compound 0.03162 µM): 0.514
- relative viability ([14]; first compound 0.1 µM): 0.481
- relative viability ([14]; first compound 0.3162 µM): 0.503
- relative viability ([14]; first compound 1 µM): 0.421
- relative viability ([15]; first compound 0.01 µM): 1.19
- relative viability ([15]; first compound 0.03162 µM): 1.12
- relative viability ([15]; first compound 0.1 µM): 1.19
- relative viability ([15]; first compound 0.3162 µM): 1.27
- relative viability ([15]; first compound 1 µM): 1.02
- relative viability ([16]; first compound 0.01 µM): 0.792
- relative viability ([16]; first compound 0.03162 µM): 0.773
- relative viability ([16]; first compound 0.1 µM): 0.787
- relative viability ([16]; first compound 0.3162 µM): 0.924
- relative viability ([16]; first compound 1 µM): 0.914
- relative viability ([17]; first compound 0.01 µM): 0.776
- relative viability ([17]; first compound 0.03162 µM): 0.906
- relative viability ([17]; first compound 0.1 µM): 0.819
- relative viability ([17]; first compound 0.3162 µM): 0.94
- relative viability ([17]; first compound 1 µM): 0.906
- relative viability ([18]; first compound 0.01 µM): 0.604
- relative viability ([18]; first compound 0.03162 µM): 0.498
- relative viability ([18]; first compound 0.1 µM): 0.54
- relative viability ([18]; first compound 0.3162 µM): 0.293
- relative viability ([18]; first compound 1 µM): 0.0196
- relative viability ([19]; first compound 0.01 µM): 0.826
- relative viability ([19]; first compound 0.03162 µM): 0.781
- relative viability ([19]; first compound 0.1 µM): 0.727
- relative viability ([19]; first compound 0.3162 µM): 0.751
- relative viability ([19]; first compound 1 µM): 0.9
- relative viability ([20]; first compound 0.01 µM): 0.918
- relative viability ([20]; first compound 0.03162 µM): 0.849
- relative viability ([20]; first compound 0.1 µM): 0.927
- relative viability ([20]; first compound 0.3162 µM): 0.753
- relative viability ([20]; first compound 1 µM): 0.33
- relative viability ([21]; first compound 0.01 µM): 0.843
- relative viability ([21]; first compound 0.03162 µM): 0.75
- relative viability ([21]; first compound 0.1 µM): 0.727
- relative viability ([21]; first compound 0.3162 µM): 0.797
- relative viability ([21]; first compound 1 µM): 0.776
- relative viability ([22]; first compound 0.01 µM): 0.894
- relative viability ([22]; first compound 0.03162 µM): 0.886
- relative viability ([22]; first compound 0.1 µM): 0.825
- relative viability ([22]; first compound 0.3162 µM): 0.861
- relative viability ([22]; first compound 1 µM): 0.852
